Measurements: paper PMC9602571, “Discovery of a Dual SENP1 and SENP2 Inhibitor” (International Journal of Molecular Sciences, 2022)
pIC50: −log10 of the molar value. Where two headings read alike, the source gives them in different places.

Legend:
SENP1 = target: T1, SENP1 (Homo sapiens, UniProt Q9P0U3); test: Fluorogenic SENP1 assay, SUMO1-AMC substrate; assay type: biochemical; conditions: for LE (ligand efficiency): calculated: 1.4(-logIC50)/N; for reduced inhibition by a factor: compared to hit compound 11
T1 construct: Human recombinant, His6-SENP1 Catalytic Domain; His6 (N); purchased Boston Biochem (Bio-Techne AG) E-700
T1 sequence (Q9P0U3 450-613 limits assumed): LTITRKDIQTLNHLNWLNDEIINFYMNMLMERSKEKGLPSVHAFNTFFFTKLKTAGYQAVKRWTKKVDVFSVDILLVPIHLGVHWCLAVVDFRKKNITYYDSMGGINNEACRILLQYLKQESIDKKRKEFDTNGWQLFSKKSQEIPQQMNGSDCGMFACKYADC
Description: Human recombinant, His6-SENP1 Catalytic Domain (Boston Biochem Cat# E-700, Bio-Techne AG, Zug, Switzerland) was prepared in reaction buffer (50 mM HEPES, 150 mM NaCl, 0.5 mM EDTA, 1 mM DTT, pH 7.5, 0.01% CHAPS). To this solution, a 20 mM or 50 mM inhibitor stock solution in DMSO was added and the mixture was incubated for 15 min at ambient temperature. […] The slope was calculated using Excel and the curve fits were performed using GraphPad Prism7 with a four-parameter least-squares fit. The final reaction conditions contained 0.02 nM SENP1 and 300 nM SUMO1/2 or 3-AMC).

[1] = screening library samples, SUMO1-AMC, read-out: IC50 SENP1 of hit molecules
[2] = SUMO1-AMC 300 nM, 0.02 nM SENP1, interval in parentheses, read-out: IC50 SENP1

`Cc1c(C(=O)N2CCC(C)CC2)nnn1-c1cccc2c1CCN(Cc1ccccc1)C2` [Compound 12] gave a pIC50 (SENP1; [1]) of 4.57.
`CC1CCn2cc(C(=O)NC3CCn4cc(-c5ccc(F)cc5F)nc4C3)nc2C1` (centres unmarked) [Compound 13] gave a pIC50 (SENP1; [1]) of 4.55.
With `O=C1Nc2ccccc2NC12CCCC2` [Compound 15, 3′,4′-Dihydro-1′H-spiro[cyclopentane-1,2′-quinoxalin]-3′-one] the pIC50 (SENP1; [2]) was 3.94, the “LE (ligand efficiency)” value (SENP1) was 0.37 and the melting point was 174 °C.
In the case of `CC1(C)Nc2ccccc2NC1=O` [Compound 16, 3,3-Dimethyl-1,2,3,4-tetrahydroquinoxalin-2-one], the inhibition at 500 µM (SENP1) was about 50%, the pIC50 (SENP1; [2]) was under 3.30 and the melting point was 178 °C.
With `CC1(C)C(=O)Nc2ccccc2N1C(=O)Cn1nnc(-c2ccccc2)n1` [Compound 23, 3,3-Dimethyl-4-[2-(5-phenyl-2H-1,2,3,4-tetrazol-2-yl)acetyl]-1,2,3,4-tetrahydroquinoxalin-2-one] the pIC50 (SENP1; [2]) was 4.91, the “reduced inhibition by a factor” value (SENP1) was 1.5 and the melting point was 252 °C (dec.).
With `O=C1CN(C(=O)Cn2nnc(-c3ccccc3)n2)c2ccccc2N1` [Compound 24, 4-[2-(5-Phenyl-2H-1,2,3,4-tetrazol-2-yl)acetyl]-1,2,3,4-tetrahydroquinoxalin-2-one] the pIC50 (SENP1; [2]) was 4.11, the “reduced inhibition by a factor” value (SENP1) was 10 and the melting point was 231 °C (dec.).
`O=C1CNc2ccccc2N1` [Compound 25, 1,2,3,4-tetrahydroquinoxalin-2-one] gave a pIC50 (SENP1; [2]) of under 3.30.
With `O=C1Nc2ccccc2OC12CCCC2` [Compound 26, 3,4-Dihydrospiro [1,4-benzoxazine-2,1′-cyclopentan]-3-one] the pIC50 (SENP1; [2]) was 4.11, the “LE (ligand efficiency)” value (SENP1) was 0.38 and the melting point was 157 to 162 °C.
With `O=C1Nc2ccccc2NC12CCCCC2` [Compound 27, 3′,4′-Dihydro-1′H-spiro[cyclohexane-1,2′-quinoxalin]-3′-one] the pIC50 (SENP1; [2]) was 3.58, the “LE (ligand efficiency)” value (SENP1) was 0.31 and the melting point was 230 to 234 °C (dec.).
With `O=C1Nc2ccccc2NC12CCCCCCC2` [Compound 28, 3′,4′-Dihydro-1′H-spiro[cyclooctane-1,2′-quinoxalin]-3′-one] the pIC50 (SENP1; [2]) was 4.29 and the “LE (ligand efficiency)” value (SENP1) was 0.33.
In the case of `O=C1Nc2ccccc2NC12CCC2` [Compound 29, 3′,4’-Dihydro-1′H-spiro[cyclobutane-1,2′-quinoxalin]-3′-one], the pIC50 (SENP1; [2]) was 4.18 and the “LE (ligand efficiency)” value (SENP1) was 0.42.
With `O=C1Nc2ccccc2NC12COC2` [Compound 30, 3′,4′-Dihydro-1′H-spiro[oxetane-3,2′-quinoxalin]-3′-one] the pIC50 (SENP1; [2]) was 4.09, the “LE (ligand efficiency)” value (SENP1) was 0.41 and the melting point was 165 to 170 °C (dec.).
In the case of `O=C1Nc2ccccc2NC12CCOCC2` [Compound 31, 3′,4′-Dihydro-1′H-spiro[oxane-4,2′-quinoxalin]-3′-one], the pIC50 (SENP1; [2]) was 3.63, the “LE (ligand efficiency)” value (SENP1) was 0.32 and the melting point was 211 to 226 °C (dec.).
For `O=C1NC2(CCCC2)Nc2ccccc21` [Compound 32, 3′,4′-Dihydro-1′H-spiro[cyclopentane-1,2′-quinazolin]-4′-one], the melting point was 233 to 238 °C (dec.).
With `c1ccc2c(c1)NCC1(CCCC1)N2` [Compound 33, 3′,4′-Dihydro-1′H-spiro[cyclopentane-1,2′-quinoxaline]] the pIC50 (SENP1; [2]) was under 3.30 and the melting point was 80 to 82 °C.
With `O=C1Nc2ncccc2NC12CCCC2` [Compound 34, 3′,4′-Dihydro-1′H-spiro[cyclopentane-1,2′-pyrido [2,3-b]pyrazin]-3′-one] the pIC50 (SENP1; [2]) was under 3.30 and the “SENP1 activity in words” value (SENP1; up to 500 µM) was “complete loss of activity”.
In the case of `O=C1Nc2cscc2NC12CCCC2` [Compound 35, 3′,4′-Dihydro-1′H-spiro[cyclopentane-1,2′-thieno [3,4-b]pyrazin]-3′-one], the pIC50 (SENP1; [2]) was 4.43, the “LE (ligand efficiency)” value (SENP1) was 0.44 and the melting point was 126 to 130 °C (dec.).
For `O=C1Nc2cscc2NC12CCCCC2` [Compound 36, 3′,4′-Dihydro-1′H-spiro[cyclohexane-1,2′-thieno [3,4-b]pyrazin]-3′-one], the pIC50 (SENP1; [2]) was 4.21 and the “LE (ligand efficiency)” value (SENP1) was 0.39.
In the case of `COc1cccc2c1NC(=O)C1(CCCC1)N2` [Compound 37, 5′-Methoxy-3′,4′-dihydro-1′H-spiro[cyclopentane-1,2′-quinoxalin]-3′-one], the pIC50 (SENP1; [2]) was 3.96, the “LE (ligand efficiency)” value (SENP1) was 0.34 and the melting point was 176 to 180 °C.
For `COC(=O)c1cccc2c1NC(=O)C1(CCCC1)N2` [Compound 38, Methyl 3′-oxo-3′,4′-dihydro-1′H-spiro[cyclopentane-1,2′-quinoxaline]-5′-carboxylate], the pIC50 (SENP1; [2]) was 4.21, the “LE (ligand efficiency)” value (SENP1) was 0.33 and the melting point was 147 to 149 °C.
With `COc1ccc2c(c1)NC1(CCCC1)C(=O)N2` [Compound 39, 7′-Methoxy-3′,4′-dihydro-1′H-spiro[cyclopentane-1,2′-quinoxalin]-3′-one] the pIC50 (SENP1; [2]) was 3.70, the “LE (ligand efficiency)” value (SENP1) was 0.32 and the melting point was 224 to 227 °C (dec.).
With `COC(=O)c1ccc2c(c1)NC(=O)C1(CCCC1)N2` [Compound 40, Methyl 3′-oxo-3′,4′-dihydro-1′H-spiro[cyclopentane-1,2′-quinoxaline]-6′-carboxylate] the pIC50 (SENP1; [2]) was 3.69, the “LE (ligand efficiency)” value (SENP1) was 0.28 and the melting point was 246 to 250 °C (dec.).
With `O=C1Nc2cc([N+](=O)[O-])ccc2NC12CCCC2` [Compound 41, 6′-Nitro-3′,4′-dihydro-1′H-spiro[cyclopentane-1,2′-quinoxalin]-3′-one] the pIC50 (SENP1; [2]) was 4.17, the “LE (ligand efficiency)” value (SENP1) was 0.34 and the melting point was 275 to 278 °C.
With `O=C(Cn1cc(-c2ccccc2)nn1)N1c2ccccc2NC(=O)C12CCCC2` [Compound 44, 1′-[2-(4-Phenyl-1H-1,2,3-triazol-1-yl)acetyl]-3′,4′-dihydro-1′H-spiro[cyclopentane-1,2′-quinoxalin]-3′-one] the pIC50 (SENP1; [2]) was 4.64 and the melting point was 256 °C (dec.).
With `O=C(Cn1cc(C2CCCCC2)nn1)N1c2ccccc2NC(=O)C12CCCC2` [Compound 45, 1′-[2-(4-Cyclohexyl-1H-1,2,3-triazol-1-yl)acetyl]-3′,4′-dihydro-1′H-spiro[cyclopentane-1,2′-quinoxalin]-3′-one] the pIC50 (SENP1; [2]) was 4.72 and the melting point was 205 °C (dec.).
For `O=C(Cn1cc(Cc2ccccc2)nn1)N1c2ccccc2NC(=O)C12CCCC2` [Compound 46, 1′-[2-(4-Benzyl-1H-1,2,3-triazol-1-yl)acetyl]-3′,4′-dihydro-1′H-spiro[cyclopentane-1,2′-quinoxalin]-3′-one], the pIC50 (SENP1; [2]) was 4.42 and the melting point was 203 °C (dec.).
For `O=C(O)c1cccc(-c2cn(CC(=O)N3c4ccccc4NC(=O)C34CCCC4)nn2)c1` [Compound 47, 3-[1-(2-Oxo-2-{3′-oxo-3′,4′-dihydro-1′H-spiro[cyclopentane-1,2′-quinoxalin]-1′-yl}ethyl)-1H-1,2,3-triazol-4-yl]benzoic acid], the pIC50 (SENP1; [2]) was 4.54 and the melting point was 272 °C (dec.).
For `COC(=O)c1ccc(-c2cn(CC(=O)N3c4ccccc4NC(=O)C34CCCC4)nn2)cc1` [Compound 48, Methyl 4-[1-(2-oxo-2-{3′-oxo-3′,4′-dihydro-1′H-spiro[cyclopentane-1,2′-quinoxalin]-1′-yl}ethyl)-1H-1,2,3-triazol-4-yl]benzoate], the pIC50 (SENP1; [2]) was 5.12 and the melting point was 263 °C (dec.).
With `COc1ccc(-c2cn(CC(=O)N3c4ccccc4NC(=O)C34CCCC4)nn2)cc1` [Compound 49, 1′-{2-[4-(4-Methoxyphenyl)-1H-1,2,3-triazol-1-yl]acetyl}-3′,4′-dihydro-1′H-spiro[cyclopentane-1,2′-quinoxalin]-3′-one] the pIC50 (SENP1; [2]) was 4.89 and the melting point was 249 °C (dec.).
For `O=C(Cn1cc(-c2ccccn2)nn1)N1c2ccccc2NC(=O)C12CCCC2` [Compound 50, 1′-{2-[4-(Pyridin-2-yl)-1H-1,2,3-triazol-1-yl]acetyl}-3′,4′-dihydro-1′H-spiro[cyclopentane-1,2′-quinoxalin]-3′-one], the pIC50 (SENP1; [2]) was under 3.70, the “SENP1 inhibition in words” value (SENP1; at 200 µM) was “only slight inhibition” and the melting point was 218 °C (dec.).
For `O=C(Cn1cc(C2CC2)nn1)N1c2ccccc2NC(=O)C12CCCC2` [Compound 51, 1′-[2-(4-Cyclopropyl-1H-1,2,3-triazol-1-yl)acetyl]-3′,4′-dihydro-1′H-spiro[cyclopentane-1,2′-quinoxalin]-3′-one], the pIC50 (SENP1; [2]) was under 3.70.
`COCCc1cn(CC(=O)N2c3ccccc3NC(=O)C23CCCC3)nn1` [Compound 53, 1′-{2-[4-(2-Methoxyethyl)-1H-1,2,3-triazol-1-yl]acetyl}-3′,4′-dihydro-1′H-spiro[cyclopentane-1,2′-quinoxalin]-3′-one] gave a pIC50 (SENP1; [2]) of under 4.00.
In the case of `O=C(CN1CCN(c2ccccc2)CC1)N1c2ccccc2NC(=O)C12CCCC2` [Compound S1], the pIC50 (SENP1; [2]) was 3.82.
Compound `CC1(C)C(=O)Nc2ccccc2N1C(=O)CN1CCN(c2ccccc2)CC1` [Compound S2] has a pIC50 (SENP1; [2]) of 4.00.
In the case of `CC1(C)C(=O)Nc2ccccc2N1C(=O)COc1ccccc1` [Compound S3], the pIC50 (SENP1; [2]) was under 3.70.
Compound `CC1(C)C(=O)Nc2ccccc2N1C(=O)CN1CCc2ccccc21` [Compound S4] has a pIC50 (SENP1; [2]) of 3.82.
In the case of `CN(CC(=O)N1c2ccccc2NC(=O)C1(C)C)Cc1ccccc1` [Compound S5], the pIC50 (SENP1; [2]) was under 3.70.
With `CN(CC(=O)N1c2ccccc2NC(=O)C1(C)C)c1ccccc1` [Compound S6] the pIC50 (SENP1; [2]) was under 3.70.
Work on `COc1ccc(N(C)CC(=O)N2c3ccccc3NC(=O)C2(C)C)cc1` [Compound S7] yielded a pIC50 (SENP1; [2]) of under 3.70.
